Like-named read-outs stand apart in the source and are kept apart here.

The values below come from US20050153947A1, “Methods and reagents for the treatment of diseases and disorders associated with increased levels of proinflammatory cytokines” (priority 2002, published 2005).

The subject of assay [1] is TNFα. Description: TNFα secretion by stimulated white blood cells, SSRI/corticosteroid combination matrices (Example 4, stimulus not given). Type of assay: cell-based. The note with it: Homo sapiens, read-out: percent inhibition of TNFα secretion; for inhibition at 0.003 µM: prednisolone 0.003 μM; for inhibition at 0.006 µM: prednisolone 0.006 μM; for inhibition at 0.05 µM: prednisolone 0.050 μM; for inhibition at 0.1 µM: prednisolone 0.100 μM; for inhibition at 0.2 µM: prednisolone 0.200 μM.

In assay [2] the test system is TNFα. Description: TNFα secretion by white blood cells/PBMC stimulated with phorbol 12-myristate 13-acetate and ionomycin (PI), ELISA. Particulars: concentration (μM). (In general: ELISA stands for enzyme-linked immunosorbent assay.)
Protocol: (§1) Various concentrations of each test compound were added at the time of stimulation. […] After the plate was washed with 0.1% Tween 20/PBS, an HRP-luminescent substrate was added to each well and light intensity measured using a LJL Analyst plate luminometer.
(§2) Single agents were tested for the ability to suppress secretion of IFNγ, IL-1β, IL-2, and TNFα from stimulated white blood cells, and the percent inhibition of cytokine secretion, relative to untreated stimulated white blood cells, was determined.
In a further assay the test system is IL-2. Kind of assay: IL-2 secretion by white blood cells/PBMC stimulated with phorbol 12-myristate 13-acetate and ionomycin (PI), ELISA. Particulars: for percent inhibition of cytokine secretion, IL-2: concentration (μM).
The subject of the next assay is IL-1β. Description: IL-1β secretion by white blood cells stimulated with lipopolysaccharide, ELISA. The format is cell-based, human.
For assay [3], the system named is TNFα. Kind of assay: TNFα secretion by white blood cells stimulated with lipopolysaccharide (LPS), ELISA. Type of assay: cell-based, human. Particulars: concentration (μM).
Protocol: as §1, §2
A further assay deals with IL-5. Kind of assay: IL-5 secretion, buffy coat assay supernatant, Cytometric 6 Bead Array. The note with it: Homo sapiens, read-out: IL-5 % Inhibition.
The test system of another assay is IL-4. Description: IL-4 secretion, buffy coat assay supernatant, Cytometric 6 Bead Array. The note with it: Homo sapiens, read-out: IL-4 % Inhibition.
[4] abbreviates: citalopram alone, 20.00 to 0.01.
Where [5] appears, read: fluoxetine alone, 29.00 to 0.01.
Setting [6] is: Homo sapiens, PBMC, read-out: % Inhibition IL-2 PBMC PI.
The mark [7] stands for this setting: norfluoxetine alone, 45.00 to 0.02.
The mark [8] stands for this setting: paroxetine alone, 27.00 to 0.03.
[9] abbreviates: fluoxetine concentration (μM), 7.230 to 0.000.
Where [10] appears, read: paroxetine concentration (μM), 6.000 to 0.000.
Where [11] appears, read: R(+) fluoxetine alone, 58 to 0.028.
Where [12] appears, read: S(+) fluoxetine alone, 58 to 0.028.

Protocol for IL-1β: as §1, §2
Protocol for IL-2: as §1, §2
Protocol for IL-4: (§3) Analysis of IL-4 and IL-5 cytokine expression was performed using the BD PharMingen Cytometric 6 Bead Array system according to the manufacturer's instructions. Briefly, the supernatant from a buffy coat assay plate wa incubated with the labeled cytokine detection bead cocktail. The samples were then washed, resuspended and read on the BD Pharmingen FACsCalibur flow cytometer. Data was then analyzed using the BD Pharmingen CBA 6 Bead Analysis software.
Protocol for IL-5: as §3

As usually defined, the inhibition is the relative decrease from the control value, in per cent. `CCCC1O[C@@H]2C[C@H]3[C@@H]4CCC5=CC(=O)C=C[C@]5(C)[C@H]4[C@@H](O)C[C@]3(C)[C@]2(C(=O)CO)O1` (stereo partly shown) [Budesonide, budesonide]: the inhibition at 0.0005 µM in the assay with TNFα [1] (budesonide 0.0005 μM, fluoxetine concentration (μM), 0 to 0.580) was -2.4%. Further, the inhibition at 0.002 µM with TNFα [1] (budesonide 0.002 μM, fluoxetine concentration (μM), 0 to 0.580) was -8.9%. The inhibition at 0.009 µM in the assay with TNFα [1] (budesonide 0.009 μM, fluoxetine concentration (μM), 0 to 0.580) stood at 5.3%.
Consider `CN(C)CCCC1(c2ccc(F)cc2)OCc2cc(C#N)ccc21` (stereo not shown) [Citalopram], for which the “percent inhibition of cytokine secretion, TNFα (PI)” value (shortened to “percent inhibition … (PI)”) in the assay with TNFα [2] (setting [4]) is listed as 0%. Also, the “percent inhibition of cytokine secretion, IL-2” value (shortened to “percent inhibition … IL-2”) in the assay with IL-2 (setting [4]) amounted to 0%.
With `C[C@@H]1C[C@H]2[C@@H]3CCC4=CC(=O)C=C[C@]4(C)[C@@]3(F)[C@@H](O)C[C@]2(C)[C@@]1(O)C(=O)CO` [Dexamethasone, dexamethasone], the inhibition at 0.0004 µM in the assay on TNFα [1] (dexamethasone 0.0004 μM, paroxetine concentration (μM), 0 to 6.000) is 2.1%. Further, the inhibition at 0.0006 µM in the assay with TNFα [1] (dexamethasone 0.0006 μM, fluoxetine concentration (μM), 0 to 0.580) was -3.8%. Moreover, in the assay on TNFα [1] (dexamethasone 0.0008 μM, paroxetine concentration (μM), 0 to 6.000), the inhibition at 0.0008 µM was 6.7%.
Regarding `CNCCC(Oc1ccc(C(F)(F)F)cc1)c1ccccc1` (stereo not shown) [Fluoxetine], the “percent inhibition … (PI)” value in the assay with TNFα [2] (setting [5]) was 6%. In the assay on IL-1β (fluoxetine alone, concentration (μM), 29.00 to 0.01), the “percent inhibition of cytokine secretion, IL-1β” value (shortened to “percent inhibition … IL-1β”) was determined as 0%. In the assay on IL-2 (setting [6]), the inhibition at 10 µM worked out at 16.1%, the inhibition at 21 µM came to 47.4%, the inhibition at 42 µM was 90.3% and the inhibition at 84 µM was found to be 103%. For the same molecule, in the assay on IL-2 (setting [5]), the “percent inhibition … IL-2” value was determined as 0%. For the same molecule, the “percent inhibition of cytokine secretion, TNFα (LPS)” value (“percent inhibition … (LPS)” below) in the assay with TNFα [3] (setting [5]) was 0%.
Regarding `COCCCC/C(=N\OCCN)c1ccc(C(F)(F)F)cc1` [Fluvoxamine], the “percent inhibition … (PI)” value in the assay with TNFα [2] (fluvoxamine alone, 63 to 0.031) amounted to 0%. The “percent inhibition … IL-1β” value with IL-1β (fluvoxamine alone, concentration (μM), 63 to 0.031) is 0%. In addition, in the assay on IL-2 (setting [6]), the inhibition at 5 µM worked out at 3.6%, the inhibition at 10 µM was found to be 8.1% and the inhibition at 20 µM came out at 22%. Moreover, in the assay with TNFα [3] (fluvoxamine alone, 63 to 0.031), the “percent inhibition … (LPS)” value came to 0%.
For the molecule `NCCC(Oc1ccc(C(F)(F)F)cc1)c1ccccc1` (stereo not shown) [Norfluoxetine, norfluoxetine], the “percent inhibition … (PI)” value in the assay with TNFα [2] (setting [7]) was found to be 0%. In addition, the “percent inhibition … IL-1β” value with IL-1β (norfluoxetine alone, concentration (μM), 45.00 to 0.02) worked out at 0%. For the same molecule, the “percent inhibition … IL-2” value in the assay with IL-2 (setting [7]) was 0%. Moreover, in the assay on TNFα [3] (setting [7]), the “percent inhibition … (LPS)” value is reported as 0%.
Regarding `Fc1ccc([C@@H]2CCNC[C@H]2COc2ccc3c(c2)OCO3)cc1` [Paroxetine], the “percent inhibition … (PI)” value with TNFα [2] (setting [8]) came to 0%. In addition, the inhibition at 28 µM with IL-5 came to 97.8%. The inhibition at 28 µM with IL-4 stood at 97.1%. In the assay on IL-1β (paroxetine alone, concentration (μM) in c4 of the same row, 53.00 to 0.05), the “percent inhibition … IL-1β” value is given as 0%. In the assay on IL-2 (setting [6]), the inhibition at 18 µM was 54.2%, the inhibition at 36 µM worked out at 83.5% and the inhibition at 72 µM stood at 95.7%. Further, the “percent inhibition … IL-2” value in the assay with IL-2 (setting [8]) is 0%. The “percent inhibition … (LPS)” value in the assay with TNFα [3] (setting [8]) came out at 0%.
Turning to `C[C@]12C=CC(=O)C=C1CC[C@@H]1[C@@H]2[C@@H](O)C[C@@]2(C)[C@H]1CC[C@]2(O)C(=O)CO` [Prednisolone, prednisolone], the inhibition at 0.5 µM was determined as 29.1% in the assay on TNFα [1] (Prednisolone 0.500 μM alone); 39% in the assay with TNFα [1] (prednisolone 0.500 μM, fluoxetine concentration (μM), 0 to 29.00); 35.4% in the assay on TNFα [1] (prednisolone 0.500 μM, paroxetine concentration (μM), 0 to 27.00). The inhibition at 1 µM in the assay on TNFα [1] (Prednisolone 1.0000 μM alone) was 34%; with TNFα [1] (prednisolone 1.0000 μM, fluoxetine concentration (μM), 0 to 29.00), 35.1%; in the assay on TNFα [1] (prednisolone 1.0000 μM, paroxetine concentration (μM), 0 to 27.00), 38.6%; in the assay with IL-5, 75.5%; in the assay with IL-4, 47.8%. Further, the inhibition at 0.0008 µM in the assay with TNFα [1] (prednisolone 0.0008 μM, fluoxetine concentration (μM), 7.230 to 0.000) turned out to be 3.8%. Besides, the inhibition at 0.003 µM with TNFα [1] (setting [9]) is 4.4%; with TNFα [1] (setting [10]), -0.1%. Besides, the results for the inhibition at 0.006 µM in the assay on TNFα [1] (setting [9]) and in the assay with TNFα [1] (setting [10]) were 7% and 4.6%, respectively. The inhibition at 0.05 µM came to 24.3% with TNFα [1] (setting [9]) and 23.4% in the assay with TNFα [1] (setting [10]). Further, the figures for the inhibition at 0.1 µM in the assay on TNFα [1] (setting [9]) and in the assay with TNFα [1] (setting [10]) were 31.6% and 29.4%, respectively. The inhibition at 0.2 µM was 39.7% in the assay on TNFα [1] (setting [9]) and 34.1% in the assay on TNFα [1] (setting [10]). Moreover, the inhibition at 0.4 µM in the assay with TNFα [1] (prednisolone 0.400 μM, paroxetine concentration (μM), 6.000 to 0.000) was found to be 36.2%.
With `CNCC[C@@H](Oc1ccc(C(F)(F)F)cc1)c1ccccc1` [R(+) Fluoxetine], the “percent inhibition … (PI)” value in the assay with TNFα [2] (setting [11]) was determined as 0%. For the same molecule, the “percent inhibition … IL-1β” value in the assay on IL-1β (R(+) fluoxetine alone, concentration (μM), 58 to 0.028) turned out to be 0%. Further, the “percent inhibition … IL-2” value in the assay on IL-2 (setting [11]) is 0%. The “percent inhibition … (LPS)” value with TNFα [3] (setting [11]) turned out to be 0%.
For `CNCC[C@H](Oc1ccc(C(F)(F)F)cc1)c1ccccc1` [S(+) Fluoxetine], in the assay with TNFα [2] (setting [12]), the “percent inhibition … (PI)” value is recorded as 0%. Also, the “percent inhibition … IL-1β” value in the assay with IL-1β (S(+) fluoxetine alone, concentration (μM), 58 to 0.028) came to 0%. In the assay on IL-2 (setting [12]), the “percent inhibition … IL-2” value worked out at 0%. In the assay on TNFα [3] (setting [12]), the “percent inhibition … (LPS)” value amounted to 0%.
For `COc1ccc(C(CN(C)C)C2(O)CCCCC2)cc1` (stereo not shown) [Venlafaxine], the “percent inhibition … (LPS)” value with TNFα [3] (venlafaxine alone, 39.83 to 0.02) is 3.33%.
